Results on four compounds are retold here after patent US20250179055A1, “Substituted 2-(pyrrolidine-3-yl)acetic acid derivative, preparation method and use thereof” (INNOVSTONE THERAPEUTICS LIMITED, priority 2023, published 2025).

One data set has as its system serum Lp(a). Briefly: Humanized mouse Lp(a) inhibition test. It counts as in vivo, humanized Lp(a) transgenic mouse. The note with it: 5 mg/kg oral once daily for 3 days, blood 8 h after last dose, humanized Lp(a) mice. How it is done: The in vivo pharmacodynamics of the compounds in reducing Lp(a) was evaluated in a humanized Lp(a) transgenic mouse model. Lp(a) mice were obtained by crossing mice expressing humanized apoB-100 with mice expressing humanized apo(a) containing 16 Kringle repeats. Female mice aged 8-9 weeks were selected for the test. Housing conditions: standard light cycle (12 h light/12 h dark), temperature 20-25° C., humidity 40-70%, free access to water and normal diet. is One day before the test, mice were divided into vehicle control group and test article group (n=5/group) according to body weight and baseline plasma Lp(a) concentration. Mice were orally administered with vehicle (normal saline, 10 mL/kg) or test compound (prepared with normal saline to 3 or 0.5 mg/mL, each mouse received 10 mL/kg), once daily (9:00 am) for 3 consecutive days, and blood was collected to determine the change of serum Lp(a). Eight hours after the last dose, 10 μL of blood was collected from the tail vein and transferred to a 1.5 mL centrifuge tube containing 90 μL of normal saline, mixed well, and left to stand on ice for 30 min. The above samples were centrifuged at 4° C., 3000 rpm for 10 min, and the supernatant was collected and placed on ice. The Lp(a) concentration in the supernatant was measured by double-antibody sandwich ELISA using an anti-apo(a) capture antibody and an HRP-conjugated anti-ApoB detection antibody, with TMB for color development. The reaction was stopped with 1 N sulfuric acid, and the OD value was read at 450 nm on a Tecan microplate reader. Inhibition rate was calculated for each dosing group. Inhibition rate (%)=(vehicle control group Lp(a) concentration or self pre-dose Lp(a) concentration post-dose Lp(a) concentration)/vehicle control group Lp(a) concentration or self pre-dose Lp(a) concentration*100.

Data set [1] is described as follows: Pharmacokinetic test in C57BL/6J female mice. It counts as in vivo. The note with it: mouse, plasma; for bioavailability: gavage 10 mg/kg vs intravenous 2 mg/kg. The procedure: C57BL/6J female mice were used as test animals, and the drug concentration in plasma of C57BL/6J female mice at different time points after intravenous and gavage administration was determined to study the pharmacokinetic characteristics of the compound in C57BL/6J female mice.
Drug formulation: a certain amount of compound was weighed and normal saline was added to prepare clear, colorless solutions of 0.4 mg/mL (IV) and 1 mg/mL (PO).
Test procedure: C57BL/6J female mice were fasted overnight before gavage administration, followed by non-fasted intravenous administration. The intravenous dose was 2 mg/kg, and the gavage dose was 10 mg/kg. Approximately 0.03 mL of blood was collected from the orbital venous plexus at 0.083 (IV), 0.25, 0.5, 1, 2, 4, 8 and 24 h after administration, respectively, placed in a centrifuge tube containing EDTA-K2, centrifuged at 3000 rpm/min at 2-8° C. for 10 min to obtain plasma, and stored at −80° C.
Determination of the content of the compound to be tested in plasma of C57BL/6J female mice at different blood collection time points: 10 μL of plasma of C57BL/6J female mice collected at each time point after administration of LY3473329 and the compound of this application was added with 200 μL of 500 mM trichloroacetic acid aqueous solution to precipitate protein, which contained 100 ng/mL internal standard, vortexed for 1 min, centrifuged at 14000 rpm for 7 min for samples treated with test tubes, and centrifuged at 4000 rpm for 10 min for samples treated with 96-well plates, and 190 μL of the supernatant was transferred to a 96-well plate, and 8 μL of the supernatant was injected for LC-MS/MS analysis. WO2023078333A1 Example 6:12 μL of plasma of C57BL/6J female mice collected at each time point after administration was added with 240 μL of methanol to precipitate protein, which contained 10 ng/mL internal standard, vortexed for 1 min, centrifuged at 14000 rpm for 7 min for samples treated with test tubes, and centrifuged at 4000 rpm for 10 min for samples treated with 96-well plates. 220 μL of the supernatant was transferred to a 96-well plate, and 10 μL of the supernatant was taken for LC-MS/MS analysis.
After plasma concentrations were determined by LC/MS/MS analysis method, pharmacokinetic parameters (e.g. Cmax, AUC, T1/2, etc.) were calculated using WinNonlin software and noncompartmental analysis.

For data set [2], the target named is Lp(a) assembly in HepG2 cells overexpressing ApoA protein (Homo sapiens (Human), UniProt P08519). Briefly: ELISA assay on screening Lp(a) assembly inhibition. It counts as cell-based. Conditions: HepG2 cells overexpressing ApoA protein, 24 h, ELISA of supernatant. The essentials: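 HepG2 cells overexpressing ApoA treated with diluted compounds for 24 h at 37 °C, 5% CO2; EACA (10 μL of 1.5 M) added before harvesting supernatant. Secreted Lp(a) quantified by sandwich ELISA; IC50 from four-parameter Hill fit of % inhibition versus concentration.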
For orientation: An ELISA detects its analyte on a solid surface through an enzyme-linked reagent.

Data set [3] in a line: Safety assessment test in rats (14-day oral gavage). Type of data set: in vivo. The note with it: SD rats, 300 and 1000 mg/kg oral once daily for 14 days. The procedure: The safety of the compounds of the present invention was evaluated by oral gavage administration to SD rats as the test animals.
Test method: 50 SD rats (half males and half females) were randomly divided into vehicle control group and test article group according to their body weight. The vehicle saline or the compound of the present invention or LY3473329 (300 mg/kg, 1000 mg/kg) was administered orally once daily for 14 consecutive days.

Where [4] appears, read: intravenous administration, 2 mg/kg.
Setting [5] is: po, gavage administration, 10 mg/kg.

Structures are written as SMILES.

Lp(a) assembly in HepG2 cells overexpressing ApoA protein, sequence (P08519 20-2040): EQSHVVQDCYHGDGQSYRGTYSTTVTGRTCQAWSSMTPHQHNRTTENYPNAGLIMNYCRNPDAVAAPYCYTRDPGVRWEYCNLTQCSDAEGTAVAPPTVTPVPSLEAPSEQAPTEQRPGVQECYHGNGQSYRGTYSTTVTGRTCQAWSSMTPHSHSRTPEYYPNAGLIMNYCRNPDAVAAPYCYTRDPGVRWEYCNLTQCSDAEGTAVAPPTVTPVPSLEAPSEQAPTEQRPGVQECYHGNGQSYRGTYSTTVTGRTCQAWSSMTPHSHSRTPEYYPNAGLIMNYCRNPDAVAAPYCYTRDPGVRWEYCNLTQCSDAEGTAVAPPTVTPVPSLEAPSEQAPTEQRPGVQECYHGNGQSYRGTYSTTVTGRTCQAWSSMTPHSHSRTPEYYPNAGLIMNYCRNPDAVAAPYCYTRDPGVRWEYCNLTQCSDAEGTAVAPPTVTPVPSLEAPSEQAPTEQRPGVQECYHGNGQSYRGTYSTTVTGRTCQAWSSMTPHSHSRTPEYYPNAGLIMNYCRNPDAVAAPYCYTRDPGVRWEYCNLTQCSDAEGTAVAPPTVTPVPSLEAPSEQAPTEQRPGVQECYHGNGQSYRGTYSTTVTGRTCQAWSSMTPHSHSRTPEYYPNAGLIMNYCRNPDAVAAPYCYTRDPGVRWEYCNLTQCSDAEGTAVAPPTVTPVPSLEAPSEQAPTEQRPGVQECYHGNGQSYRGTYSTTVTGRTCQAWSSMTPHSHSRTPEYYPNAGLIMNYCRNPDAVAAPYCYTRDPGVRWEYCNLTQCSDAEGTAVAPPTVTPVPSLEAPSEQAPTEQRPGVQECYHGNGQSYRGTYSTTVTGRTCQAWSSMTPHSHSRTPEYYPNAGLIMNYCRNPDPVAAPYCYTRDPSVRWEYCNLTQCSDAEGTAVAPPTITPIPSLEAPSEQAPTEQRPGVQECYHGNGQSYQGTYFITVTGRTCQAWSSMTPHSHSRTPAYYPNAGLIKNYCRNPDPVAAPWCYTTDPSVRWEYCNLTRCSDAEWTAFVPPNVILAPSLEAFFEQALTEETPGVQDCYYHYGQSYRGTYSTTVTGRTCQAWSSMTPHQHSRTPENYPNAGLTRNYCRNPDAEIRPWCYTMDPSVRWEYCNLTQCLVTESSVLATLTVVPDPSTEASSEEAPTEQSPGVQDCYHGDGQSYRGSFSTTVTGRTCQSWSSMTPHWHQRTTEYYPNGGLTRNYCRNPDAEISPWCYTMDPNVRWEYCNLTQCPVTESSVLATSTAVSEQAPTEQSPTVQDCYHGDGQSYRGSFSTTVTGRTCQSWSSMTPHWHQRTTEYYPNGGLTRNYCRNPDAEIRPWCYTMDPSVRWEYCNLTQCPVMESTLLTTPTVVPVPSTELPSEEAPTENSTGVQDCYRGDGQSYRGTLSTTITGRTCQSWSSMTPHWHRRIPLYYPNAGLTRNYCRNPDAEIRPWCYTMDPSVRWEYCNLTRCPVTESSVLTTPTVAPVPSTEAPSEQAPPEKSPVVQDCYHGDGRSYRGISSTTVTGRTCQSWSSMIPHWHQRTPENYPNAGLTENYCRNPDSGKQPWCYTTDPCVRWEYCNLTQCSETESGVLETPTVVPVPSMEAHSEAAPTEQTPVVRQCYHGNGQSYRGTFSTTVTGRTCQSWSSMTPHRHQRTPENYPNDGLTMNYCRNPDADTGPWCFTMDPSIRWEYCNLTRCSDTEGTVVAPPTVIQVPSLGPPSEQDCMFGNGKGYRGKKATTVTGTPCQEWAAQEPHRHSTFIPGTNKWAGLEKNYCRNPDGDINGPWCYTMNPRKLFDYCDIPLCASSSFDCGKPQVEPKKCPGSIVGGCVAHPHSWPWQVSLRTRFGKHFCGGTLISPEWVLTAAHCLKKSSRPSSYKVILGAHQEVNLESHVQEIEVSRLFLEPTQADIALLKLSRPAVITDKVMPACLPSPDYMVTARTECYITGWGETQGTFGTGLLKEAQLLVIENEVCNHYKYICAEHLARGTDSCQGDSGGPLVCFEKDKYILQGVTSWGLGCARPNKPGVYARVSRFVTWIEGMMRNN

By AUC is commonly meant concentration integrated over time. A lower AUC goes with less exposure. In general, half-life refers to the time in which the quantity being followed falls by half. In general, bioavailability refers to the share of a dose that reaches the circulation, judged against a reference dose that is usually intravenous. Low readings indicate poor availability, high ones good availability. By Cmax is commonly meant the highest concentration seen after dosing. What is called IC50 is the point on the concentration scale where inhibition reaches its midpoint. Read a low IC50 as inhibition by little substance. For the compound `O=C(O)[C@@H](Cc1cccc(CN(CCOc2cccc(C[C@H](C(=O)O)[C@H]3CCNC3)c2)C(=O)Nc2cccc(C[C@H](C(=O)O)[C@H]3CCNC3)c2)c1)[C@H]1CCNC1` [Compound 131, (S)-3-(3-(3-(3-((S)-2-carboxy-2-((R)-pyrrolidin-3-yl)ethyl)benzyl)-3-(2-(3-((S)-2-carboxy-2-((R)-pyrrolidin-3-yl)ethyl)phenoxy)ethyl)ureido)phenyl)-2-((R)-pyrrolidin-3-yl)propanoic acid], the “Lp(a) Inhibition Rate” value with serum Lp(a) is 81%. Besides, in data set [1] (setting [4]), the AUC was 31300 ng·h/mL and the half-life was 33.7 h. The compound further had a bioavailability in data set [1] (po) of 13.2%. Moreover, in data set [1] (setting [5]), the AUC was determined as 14300 ng·h/mL, the Cmax came out at 893 ng/mL and the half-life was 16 h. In data set [2], half-maximal inhibition (IC50) was put at 1.19 nM.
In the case of `O=C(O)[C@@H](Cc1cccc(CC(=O)N(CCCOc2cccc(C[C@H](C(=O)O)[C@H]3CCNC3)c2)Cc2cccc(C[C@H](C(=O)O)[C@H]3CCNC3)c2)c1)[C@H]1CCNC1` [Compound 159, (S)-3-(3-(2-((3-((S)-2-carboxy-2-((R)-pyrrolidin-3-yl)ethyl)benzyl)(3-(3-((S)-2-carboxy-2-((R)-pyrrolidin-3-yl)ethyl)phenoxy)propyl)amino)-2-oxoethyl)phenyl)-2-((R)-pyrrolidin-3-yl)propanoic acid], the “Lp(a) Inhibition Rate” value in the data set with serum Lp(a) came to 84%. In data set [1] (setting [4]), this compound had an AUC of 33400 ng·h/mL and a half-life of 35.5 h. The compound further registered a bioavailability in data set [1] (po) of 13.5%. In data set [1] (setting [5]), this compound showed an AUC of 21000 ng·h/mL, a Cmax of 874 ng/mL and a half-life of 28.9 h. Further, in data set [2], half-maximal inhibition (IC50) required 1.68 nM.
For the compound `O=C(O)[C@@H](Cc1cccc(COCCN(Cc2cccc(C[C@H](C(=O)O)[C@H]3CCNC3)c2)C(=O)Cc2cccc(C[C@H](C(=O)O)[C@H]3CCNC3)c2)c1)[C@H]1CCNC1` [Compound 160, (S)-3-(3-(2-((3-((S)-2-carboxy-2-((R)-pyrrolidin-3-yl)ethyl)benzyl)(2-((3-((S)-2-carboxy-2-((R)-pyrrolidin-3-yl)ethyl)benzyl)oxy)ethyl)amino)-2-oxoethyl)phenyl)-2-((R)-pyrrolidin-3-yl)propanoic acid], the “Lp(a) Inhibition Rate” value in the data set on serum Lp(a) is listed as 83%. In addition, in data set [1] (setting [4]), the AUC turned out to be 19200 ng·h/mL and the half-life was 12.1 h. Also, the bioavailability in data set [1] (po) is 15.9%. Also, in data set [1] (setting [5]), the AUC was determined as 23500 ng·h/mL, the concentration peaked (Cmax) at 816 ng/mL and the half-life is 28.8 h. Also, the IC50 in data set [2] was determined as 1.37 nM.
Take `O=C(O)[C@@H](Cc1cccc(CN(Cc2cccc(C[C@H](C(=O)O)[C@H]3CCNC3)c2)Cc2cccc(C[C@H](C(=O)O)[C@H]3CCNC3)c2)c1)[C@H]1CCNC1` [LY3473329, reference compound]: the “compound-related changes in clinical observation, body weight, food consumption, hematology, blood biochemistry, urine, organ weight, histopathology” value in data set [3] was “no changes”. In data set [1] (setting [4]), this compound had an AUC of 8820 ng·h/mL and a half-life of 9.8 h. In addition, the bioavailability in data set [1] (po) is 10.1%. Besides, in data set [1] (setting [5]), the AUC was determined as 4460 ng·h/mL, the concentration peaked (Cmax) at 629 ng/mL and the half-life is 7.4 h.
